Data taken from the NIST ThermoML archive (doi:10.1021/acs.jced.7b00996).

Settings: 100 kPa, Liquid; for viscosity: Capillary tube (Ostwald / Ubbelohde) method; for mass density: Vibrating tube method

CCC(C)CO (stereo unspecified) [2-methyl-1-butanol]
Settings | mass density [kg/m3] | viscosity [mPa·s]
288.15 K | 823.02 | 6.451
293.15 K | 819.56 | 5.285
298.15 K | 815.82 | 4.492
303.15 K | 812.03 | 3.813
308.15 K | 808.2 | 3.258
313.15 K | 804.33 | 2.777
318.15 K | 800.39 | 2.375
323.15 K | 796.39 | 2.057
328.15 K | 792.34 | 1.791
333.15 K | 788.2 | 1.573
338.15 K | 783.84 | 1.377

CCCCCO [pentan-1-ol]
Settings | mass density [kg/m3] | viscosity [mPa·s]
288.15 K | 818.59 | 4.7
293.15 K | 814.89 | 4.045
298.15 K | 811.23 | 3.49
303.15 K | 807.55 | 3.034
308.15 K | 803.83 | 2.674
313.15 K | 800.08 | 2.356
318.15 K | 796.29 | 2.052
323.15 K | 792.46 | 1.811
328.15 K | 788.56 | 1.609
333.15 K | 784.66 | 1.433
338.15 K | 780.7 | 1.284

CCCC(C)O (stereo unspecified) [pentan-2-ol]
Settings | mass density [kg/m3] | viscosity [mPa·s]
288.15 K | 813.55 | 5.063
293.15 K | 809.59 | 4.172
298.15 K | 805.55 | 3.412
303.15 K | 801.44 | 2.825
308.15 K | 797.25 | 2.34
313.15 K | 792.98 | 1.993
318.15 K | 788.63 | 1.704
323.15 K | 784.19 | 1.475
328.15 K | 779.67 | 1.303
333.15 K | 775.07 | 1.135
338.15 K | 770.37 | 1.012
